Key:
AMPA receptor = assay: Patch clamp whole cell electrophysiology: glutamate-evoked steady state current in cultured hippocampal neurons; assay type: cell-based; settings: 10 μM compound in extracellular solution; 0.5 mM glutamate; rat hippocampal neurons voltage clamped at −60 mV
Text: The (pyrido/thieno)-[f]-oxazepin-5-one derivatives of the invention are AMPA receptor positive modulators, as can be determined by an increase in steady state current induced by application of glutamate in a conventional whole cell patch clamp method when a (pyrido/thieno)-[f]-oxazepin-5-one of the invention is present (see Example 10 and Table I). The compounds may be used in the treatment of neurological and psychiatric diseases where an enhancement of synaptic responses mediated by AMPA receptors is required, such as neurodegenerative disorders, cognitive or memory dysfunction, memory and learning disorders such as can result from ageing, attention disorder, trauma, stroke, epilepsy, Alzheimer's disease, depression, schizophrenia, psychotic disorders, sexual dysfunctions, autism, or a disorder or disease resulting from neurotic agents or substance abuse, and alcohol intoxication.
Hippocampal neuronal cultures were prepared from embryonic or 1-3 day old Sprague-Dawley rats which were decapitated and the heads immediately placed in ice cold HBS (HEPES Buffered Solution: 130 mM NaCl, 5.4 mM KCl, 10 mM HEPES, 1.0 mM MgCl2, 1.8 CaCl2, 25 mM glucose, adjusted to pH 7.4). The whole brain was excised and placed on pre-sterilised filter paper, soaked in HBS and the cerebellum was removed. The brain was chopped and an enzyme solution (0.5 mg/ml protease X and 0.5 mg/ml protease in HBS) was added and subsequently left for 40 minutes at room temperature to digest before trituration. Cells were resuspended and then counted to give a final concentration of 1.5×10^6 per ml. Cells were aliquoted onto poly-D-lysine- and Matrigel®-treated coverslips and left to incubate at 37° C. for 1-2 hours. When incubation was complete, 1 ml of growth medium was added to each well containing a coverslip and the cells were returned to the incubator. After 3-5 days the mitotic inhibitor cytosine arabinoside (5 μM) was added and the cells returned to the incubator until required.
The whole cell configuration of the patch clamp technique (Hamill et al., Pflügers Arch. 1981, 39, 85-100) was used to measure glutamate-evoked currents from postnatal hippocampal neurons maintained in culture for 4-7 days. A glass coverslip containing the culture was transferred to the recording chamber (Warner Instrument Corp., Hamden, Conn.) mounted on the stage of an inverted microscope (Nikon, Kingston, UK). The recording chamber contained 1-2 ml extracellular solution (145 mM NaCl, 5.4 mM KCl, 10 mM HEPES, 0.8 mM MgCl2, 1.8 CaCl2, 10 mM glucose and 30 mM sucrose, adjusted to pH 7.4 with 1 M NaOH) and was constantly perfused at a rate of 1 ml/min. Recordings were performed at room temperature (20-22° C.) using an Axopatch 200B amplifier (Axon Instruments Ltd., Foster City, Calif.). Data acquisition and analysis was performed using Signal software (Cambridge Electronic Design Ltd., Cambridge, UK). Pipettes were manufactured from GC120F-10 glass (Harvard Apparatus, Edenbridge UK) using a model P-87 electrode puller (Sutter Instruments Co., Novarto, Calif.). The patch electrodes had typical resistances of between 3-5 MΩ when filled with intracellular solution (140 mM potassium gluconate, 20 mM HEPES, 1.1 mM EGTA, 5 mM phosphocreatine, 3 mM ATP, 0.3 mM GTP, 0.1 mM CaCl2, 5 mM MgCl2, adjusted to pH 7.4 with 1 M KOH).
Cells were voltage clamped at a holding potential of −60 mV and glutamate (0.5 mM) was applied using a 12 channel semi-rapid drug application device (DAD-12. Digitimer Ltd., Welwyn Garden city, UK). The agonist glutamate was applied for 1 s every 30 s. […] Between applications saline flowed to clear any dead volume in the system. For each application steady-state currents were plotted from the difference in baseline and steady state current and averaged over 300 ms.
Two solutions of the compound in extracellular solution were made up, one with glutamate and one without. […]

Mice = assay: Inhibition of amphetamine-induced hyperlocomotion; assay type: in vivo, mouse; settings: drug sc 30 minutes before 1.5 mg/kg d-amphetamine sulphate sc, locomotor activity measured for 60 minutes
Protocol: Mice were injected sc with drug treatment or vehicle control. 30 Minutes later mice were injected sc with 1.5 mg/kg d-amphetamine sulphate or saline and immediately placed in infra red locomotor boxes where locomotor activity (long duration beam breaks of two adjacent beams) and stereotypic behaviour (repetitive short-duration beam breaks) were measured for a period of 60 minutes. The experiment was analysed using a 3-Way ANOVA with experimental session, infra red locomotor boxes and treatment as factors, and in the case of treatment, significant effects were followed up using a Tukey (HSD) test.

Rats = assay: Differential reinforcement of low rates of responding, 72 seconds (DRL72); assay type: in vivo, rat; settings: intraperitoneal route 30 minutes before 60 minute test session
Protocol: Rats are pretrained in a standard operant chamber to perform a DRL72 procedure according to Andrews et al (Andrews J S, Jansen J H M, Linders S, Princen A, Drinkenburg WHIM, Coenders C J H and Vossen J H M (1994). Effects of imipramine and mirtazapine on operant performance in rats. Drug Development Research, 32, 58-66). The test session lasts for 60 minutes with no limit to the number of trials. Each trial begins with the stimulus light on above the active lever. A response on the lever only results in delivery of a pellet if 72 seconds has elapsed. A response on the lever before 72 seconds has elapsed resets the timer and is not rewarded. The number of pellets earned and the number of lever presses is recorded and used to calculate an efficiency score. Test compounds are administered via the intraperitoneal route 30 minutes before the start of the test session. Antidepressants increase the number of pellets earned and decrease the number of lever presses.

| Compound | % Increase in steady state current at 10 μM (AMPA receptor) [%] | Inhibition of amphetamine induced hyperlocomotion (Mice) | DRL72 operant performance (pellets earned, lever presses): antidepressant like profile (Rats) |
| --- | --- | --- | --- |
| O=C1c2sccc2OC[C@@H]2CCCN12 [Example 1] | 32 | inhibited amphetamine induced hyperlocomotion | – |
| O=C1c2ccc(C(F)(F)F)nc2OC[C@@H]2CCCN12 [Example 2B, (S)-8-trifluoromethyl-2,3,11,11a-tetrahydro-1H,5H-pyrrolo[2,1-c]pyrido[3,2-f][1,4]-oxazepine-5-one] | 21 | – | – |
| O=C1c2ccc(C(F)(F)F)nc2OC[C@H]2CCCN12 [Example 2C, (R)-8-trifluoromethyl-2,3,11,11a-tetrahydro-1H,5H-pyrrolo[2,1-c]pyrido[3,2-f][1,4]-oxazepine-5-one] | 19 | – | – |
| Cc1ccc2c(n1)OCC1CCCN1C2=O.Cl [Example 3, (S)-8-Methyl-2,3,11,11a-tetrahydro-1H,5H-pyrrolo[2,1-c]pyrido[3,2-f][1,4]oxazepine-5-one Hydrochloride Salt] | 12 | – | – |
| O=C1c2ccc(Cl)nc2OC[C@@H]2CCCN12 [Example 4A, (S)-8-Chloro-2,3,11,11a-tetrahydro-1H,5H-pyrrolo[2,1-c]pyrido[3,2-f][1,4]oxazepine-5-one] | 16 | – | – |
| O=C1c2ccc(Cl)nc2OC[C@H]2CCCN12 [Example 4B, (R)-8-Chloro-2,3,11,11a-tetrahydro-1H,5H-pyrrolo[2,1-c]pyrido[3,2-f][1,4]oxazepine-5-one] | 29 | – | – |
| O=C1c2cc(Cl)sc2OC[C@@H]2CCCN12 [Example 5, (S)-7-Chloro-2,3,10,10a-tetrahydro-1H,5H-pyrrolo[2,1-c]thieno[3,2-f][1,4]oxazepine-5-one] | 16 | – | – |
| O=C1c2cc(Cl)sc2OC[C@H]2CCCN12 [Example 6A, (R)-7-Chloro-2,3,10,10a-tetrahydro-1H,5H-pyrrolo[2,1-c]thieno[3,2-f][1,4]oxazepine-5-one] | 20 | – | – |
| (+)-6,6a,7,8,9,10-hexahydro-12H-pyrido[2,1-c]pyrido[3,2-f][1,4]oxazepine-12-one [Example 4D] | 13 | – | – |
| (S)-2,3,11,11a-tetrahydro-1H,5H-pyrrolo[2,1-c]pyrido[3,2-f][1,4]oxazepine-5-one | 22 | inhibited amphetamine induced hyperlocomotion | antidepressant like profile |
| (S)-8-Methoxy-2,3,11,11a-tetrahydro-1H,5H-pyrrolo[2,1-c]Pyrido[3,2-f][1,4]oxazepine-5-one [Example 7] | 22 | – | – |
